This is an account of results in US20250333407A1, “Compounds and Their Use for Treatment of Hemoglobinopathies” (Bristol-Myers Squibb Company, priority 2024, published 2025).

Molecules are shown by their SMILES.

Format in all cases: cell-based
Assay [1] deals with T1, WIZ (Homo sapiens, UniProt O95785+Q96SW2).
T1 construct: HUDEP-2 cells engineered to express a HiBiT tag in either the WIZ (Widely interspaced zinc finger) or ZBTB7A
The experiment in a line: HUDEP-2 WIZ HiBiT degradation assay. To be noted: HiBiT-tagged WIZ degradation in HUDEP-2 cells, 24 hours of treatment; read-out: WIZ EC50. The procedure:
(§1) WIZ Assay and ZBTB7A EC50 Assays. The HiBiT degradation assays for WIZ and ZBTB7A in HUDEP-2 cells were performed as described below. HUDEP-2 cells engineered to express a HiBiT tag in either the WIZ (Widely interspaced zinc finger) or ZBTB7A (Zinc Finger And BTB Domain Containing 7A) proteins were maintained in low attachment flasks in StemSpan SFEM II media supplemented with Penicillin-Streptomycin (50 U/mL), rhSCF (50 ng/mL), rhEPO (3 IU/mL), dexamethasone (0.4 μg/mL) and doxycycline (1 μg/mL). Prior to start of the assay, cell count and viability were measured by trypan blue exclusion using the Vi-cell XR cell viability analyzer.
For the HUDEP-2 WIZ HiBiT assay, cells were transferred to a 50 mL conical and centrifuged at 500 g for five minutes. Cells were resuspended in fresh StemSpan SFEM II media supplemented with Penicillin-Streptomycin (50 U/mL), rhSCF (50 ng/mL), rhEPO (3 IU/mL), dexamethasone (0.4 μg/mL) and doxycycline (1 μg/mL) at a density of 1.0×10^6 cells/ml. Forty microliters of cell suspension was dispensed into 384-well Low Flange White Flat Bottom Polystyrene TC-treated Microplates containing pre-dispensed compounds, using a VIAFLO 384 liquid hander, and placed in a 37° C. incubator with 5% CO2. […] After 24 hours of treatment, 40 μL Nano-Glo HiBiT Lytic Detection System reagent was dispensed into each well using a VIAFLO 384 liquid hander. Plates were incubated for 25 minutes at room temperature and the luminescence was read as relative luminescent units using the EnVision plate reader. EC50 and Y-min values were calculated using curves calculated from dotmatics software after the normalization to the DMSO control of 10 different concentrations: 10, 3.33, 1.11, 0.37, 0.12, 0.04 0.0137, 0.0046, 0.0015 and […] respectively.
A general note: HiBiT is a short tag that completes a luciferase, so light tracks the accessible tagged protein.

For assay [2], the target named is T2, ZBTB7A (Homo sapiens, UniProt O95365+Q96SW2).
T2 construct: HUDEP-2 cells engineered to express a HiBiT tag in either the WIZ (Widely interspaced zinc finger) or ZBTB7A
T2 sequence (O95365 whole entry): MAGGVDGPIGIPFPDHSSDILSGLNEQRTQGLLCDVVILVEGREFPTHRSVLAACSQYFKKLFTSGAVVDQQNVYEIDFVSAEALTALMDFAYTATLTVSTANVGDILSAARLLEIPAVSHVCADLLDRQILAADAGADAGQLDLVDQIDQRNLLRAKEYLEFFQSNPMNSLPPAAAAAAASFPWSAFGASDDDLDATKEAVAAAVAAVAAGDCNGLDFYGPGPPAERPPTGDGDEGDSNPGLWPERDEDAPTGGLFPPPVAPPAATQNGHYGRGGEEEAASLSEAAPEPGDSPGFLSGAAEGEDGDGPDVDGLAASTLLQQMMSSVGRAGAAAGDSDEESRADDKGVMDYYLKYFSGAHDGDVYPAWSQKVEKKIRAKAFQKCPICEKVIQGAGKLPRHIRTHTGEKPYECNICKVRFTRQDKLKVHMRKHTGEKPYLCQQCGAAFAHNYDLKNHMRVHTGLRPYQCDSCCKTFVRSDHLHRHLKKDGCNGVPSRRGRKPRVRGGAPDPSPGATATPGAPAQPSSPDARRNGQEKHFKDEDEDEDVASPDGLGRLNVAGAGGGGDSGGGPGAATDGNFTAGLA
T2 sequence (Q96SW2 whole entry): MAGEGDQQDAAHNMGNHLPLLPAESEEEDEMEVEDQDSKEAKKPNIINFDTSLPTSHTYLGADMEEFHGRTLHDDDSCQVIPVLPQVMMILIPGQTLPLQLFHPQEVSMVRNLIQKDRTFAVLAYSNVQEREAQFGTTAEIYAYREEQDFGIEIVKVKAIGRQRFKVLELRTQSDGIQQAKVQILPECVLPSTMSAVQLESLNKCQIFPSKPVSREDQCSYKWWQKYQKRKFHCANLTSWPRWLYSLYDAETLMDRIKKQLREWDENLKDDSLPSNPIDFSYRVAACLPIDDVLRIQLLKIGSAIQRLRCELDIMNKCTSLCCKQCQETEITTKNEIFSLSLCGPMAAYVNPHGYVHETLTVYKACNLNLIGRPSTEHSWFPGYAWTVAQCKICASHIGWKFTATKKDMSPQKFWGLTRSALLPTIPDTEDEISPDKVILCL
T2 sequence (Q16531 whole entry partner): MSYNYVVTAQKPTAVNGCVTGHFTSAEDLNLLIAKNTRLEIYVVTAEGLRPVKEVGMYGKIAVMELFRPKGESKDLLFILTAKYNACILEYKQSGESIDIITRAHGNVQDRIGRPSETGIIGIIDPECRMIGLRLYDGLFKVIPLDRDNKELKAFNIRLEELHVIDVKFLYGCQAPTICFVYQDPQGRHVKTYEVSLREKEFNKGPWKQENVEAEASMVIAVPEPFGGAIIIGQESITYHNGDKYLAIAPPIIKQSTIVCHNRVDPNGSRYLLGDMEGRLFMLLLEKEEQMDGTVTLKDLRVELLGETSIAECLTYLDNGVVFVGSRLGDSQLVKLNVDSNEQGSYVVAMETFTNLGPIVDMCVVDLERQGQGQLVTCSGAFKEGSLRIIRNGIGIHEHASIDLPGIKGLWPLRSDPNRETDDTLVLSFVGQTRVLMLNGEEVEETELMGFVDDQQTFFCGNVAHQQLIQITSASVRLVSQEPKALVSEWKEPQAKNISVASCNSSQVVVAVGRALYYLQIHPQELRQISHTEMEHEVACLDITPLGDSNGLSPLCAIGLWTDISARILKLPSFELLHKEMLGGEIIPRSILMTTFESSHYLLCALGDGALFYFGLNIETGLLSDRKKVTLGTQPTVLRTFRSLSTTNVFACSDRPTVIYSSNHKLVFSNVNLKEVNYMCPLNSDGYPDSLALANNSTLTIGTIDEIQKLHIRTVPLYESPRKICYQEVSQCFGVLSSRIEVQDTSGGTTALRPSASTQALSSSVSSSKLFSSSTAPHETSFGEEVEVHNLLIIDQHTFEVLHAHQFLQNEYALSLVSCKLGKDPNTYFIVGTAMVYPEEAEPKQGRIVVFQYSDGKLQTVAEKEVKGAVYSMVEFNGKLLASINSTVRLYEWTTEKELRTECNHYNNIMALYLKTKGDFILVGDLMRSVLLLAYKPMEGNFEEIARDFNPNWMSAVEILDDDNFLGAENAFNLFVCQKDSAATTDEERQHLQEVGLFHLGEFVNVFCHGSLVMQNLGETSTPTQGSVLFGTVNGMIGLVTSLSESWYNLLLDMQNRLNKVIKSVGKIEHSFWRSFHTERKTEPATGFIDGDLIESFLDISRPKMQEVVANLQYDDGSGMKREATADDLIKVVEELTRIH
The experiment in a line: HUDEP-2 ZBTB7A HiBiT degradation assay. To be noted: HiBiT-tagged ZBTB7A degradation in HUDEP-2 cells, 24 hours of treatment; read-out: ZBTB7A EC50. On the procedure: as §1
For the HUDEP-2 ZBTB7A HiBiT assay, cell count and viability were measured by trypan blue exclusion using the Vi-cell XR cell viability analyzer and the cells were transferred to a 50 mL conical and centrifuged at 500 g for five minutes. Cells were resuspended in fresh IMDM media supplemented with L-Glutamine (1×), Penicillin-Streptomycin (50 U/mL), holo-transferrin (330 μg/mL), heparin (2 IU/mL), r-human Insulin (10 μg/mL), rhEPO (3 IU/mL), rhSCF (100 ng/mL)+Dox (1 μg/mL) and 5% human plasma in low attachment flasks, which were placed in a 37° C. incubator with 5% CO2. After 48 hours, cell count and viability were measured by trypan blue exclusion using the Vi-cell XR cell viability analyzer. The HUDEP-2 ZBTB7A cells were transferred to a 50 mL conical, centrifuged at 500 g for five minutes and resuspended at a density of 1.0×10^6 cells/ml in IMDM media supplemented with L-Glutamine (1×), Penicillin-Streptomycin (50 U/mL), holo-transferrin (330 μg/mL), heparin (2 IU/mL), r-human Insulin (10 μg/mL), rhEPO (3 IU/mL), rhSCF (100 ng/mL)+Dox (1 μg/mL) and 5% human plasma. Forty microliters of cell suspension was dispensed into 384-well Low Flange White Flat Bottom Polystyrene TC-treated Microplates containing pre-dispensed compounds, using a VIAFLO 384 liquid hander, and placed in a 37° C. incubator with 5% CO2. […] After 24 hours of treatment, 40 μL Nano-Glo HiBiT Lytic Detection System reagent was dispensed into each well using a VIAFLO 384 liquid hander. Plates were incubated for 25 minutes at room temperature and the luminescence was read as relative luminescent units using the EnVision plate reader. EC50 and Y-min values were calculated using curves calculated from dotmatics software after the normalization to the DMSO control of 10 different concentrations: 10, 3.33, 1.11, 0.37, 0.12, 0.04 0.0137, 0.0046, 0.0015 and […] respectively.

In assay [3] the test system is HbF. Nature of the assay: HbF HiBiT induction assay in HUDEP-2 cells. To be noted: HUDEP-2 cells with HiBiT tag in HBG1/2, 72 hours of treatment; area under the dose response curve, higher AUC = greater HbF induction. The procedure:
HbF HiBiT induction assay. The HiBiT induction assay for HbF in HUDEP-2 cells was performed as described below. HUDEP-2 cells engineered to express a HiBiT tag in HBG1/2 were maintained at a density of 0.1-1×10^6 cells/ml in StemSpan SFEM II supplemented with 1% penicillin/streptomycin, hSCF (50 ng/mL), erythropoietin (EPO; 3 IU/mL), dexamethasone (DEX; 0.4 μg/mL), and doxycycline hyclate (DOX; 1 μg/mL). The cells were cultured in low adherence flasks, in a humidified incubator, set at 37° C. with 5% CO2. Cell counts and viability were measured by trypan blue exclusion using the Vi-CELL XR cell viability analyzer and the cell growth was consistently maintained in log phase.
Prior to the start of experiments, HbF HiBiT-tagged HUDEP-2 cells were transferred to a 50 mL conical and centrifuged at 500×g for 5 minutes, the supernatant removed, and the pellet washed in 5 mL of 1×PBS. The washed cells were centrifuged again at 500×g for 5 minutes and resuspended in IMDM containing; 1×glutamine, 1×penicillin/streptomycin, holo-transferrin (330 μg/mL), heparin (2 IU/mL), r-human insulin (10 μg/mL), EPO (3 IU/mL), 5% human plasma, hSCF (100 ng/mL) and DOX (1 μg/mL) to a final density of 0.3×10^6 cells/mL. Forty microliters of cell suspension were dispensed into 384-well Low Flange White Flat Bottom Polystyrene TC-treated Microplates containing pre-dispensed compounds, using a VIAFLO 384 liquid hander, and placed in a humidified incubator at 37° C. with 5% CO2. […] After 72 hours of treatment, 40 μL of Nano-Glo HiBiT Lytic Solution (prepared according to manufacturer's instructions) were dispensed into each well using a VIAFLO 384 liquid handler, and the plates were shaken for 20 seconds. Plates were incubated for 20 minutes at room temperature, and the luminescence was read as relative luminescent units using an EnVision plate reader.
Dose response curves were generated, and EC50, Ymax, and then area under the curve (AUC) values were calculated. HbF induction was measured using the calculated area under the curve (AUC) value, with higher AUC values indicative of greater HbF induction relative to lower AUC values.

T1 sequence (O95785 whole entry): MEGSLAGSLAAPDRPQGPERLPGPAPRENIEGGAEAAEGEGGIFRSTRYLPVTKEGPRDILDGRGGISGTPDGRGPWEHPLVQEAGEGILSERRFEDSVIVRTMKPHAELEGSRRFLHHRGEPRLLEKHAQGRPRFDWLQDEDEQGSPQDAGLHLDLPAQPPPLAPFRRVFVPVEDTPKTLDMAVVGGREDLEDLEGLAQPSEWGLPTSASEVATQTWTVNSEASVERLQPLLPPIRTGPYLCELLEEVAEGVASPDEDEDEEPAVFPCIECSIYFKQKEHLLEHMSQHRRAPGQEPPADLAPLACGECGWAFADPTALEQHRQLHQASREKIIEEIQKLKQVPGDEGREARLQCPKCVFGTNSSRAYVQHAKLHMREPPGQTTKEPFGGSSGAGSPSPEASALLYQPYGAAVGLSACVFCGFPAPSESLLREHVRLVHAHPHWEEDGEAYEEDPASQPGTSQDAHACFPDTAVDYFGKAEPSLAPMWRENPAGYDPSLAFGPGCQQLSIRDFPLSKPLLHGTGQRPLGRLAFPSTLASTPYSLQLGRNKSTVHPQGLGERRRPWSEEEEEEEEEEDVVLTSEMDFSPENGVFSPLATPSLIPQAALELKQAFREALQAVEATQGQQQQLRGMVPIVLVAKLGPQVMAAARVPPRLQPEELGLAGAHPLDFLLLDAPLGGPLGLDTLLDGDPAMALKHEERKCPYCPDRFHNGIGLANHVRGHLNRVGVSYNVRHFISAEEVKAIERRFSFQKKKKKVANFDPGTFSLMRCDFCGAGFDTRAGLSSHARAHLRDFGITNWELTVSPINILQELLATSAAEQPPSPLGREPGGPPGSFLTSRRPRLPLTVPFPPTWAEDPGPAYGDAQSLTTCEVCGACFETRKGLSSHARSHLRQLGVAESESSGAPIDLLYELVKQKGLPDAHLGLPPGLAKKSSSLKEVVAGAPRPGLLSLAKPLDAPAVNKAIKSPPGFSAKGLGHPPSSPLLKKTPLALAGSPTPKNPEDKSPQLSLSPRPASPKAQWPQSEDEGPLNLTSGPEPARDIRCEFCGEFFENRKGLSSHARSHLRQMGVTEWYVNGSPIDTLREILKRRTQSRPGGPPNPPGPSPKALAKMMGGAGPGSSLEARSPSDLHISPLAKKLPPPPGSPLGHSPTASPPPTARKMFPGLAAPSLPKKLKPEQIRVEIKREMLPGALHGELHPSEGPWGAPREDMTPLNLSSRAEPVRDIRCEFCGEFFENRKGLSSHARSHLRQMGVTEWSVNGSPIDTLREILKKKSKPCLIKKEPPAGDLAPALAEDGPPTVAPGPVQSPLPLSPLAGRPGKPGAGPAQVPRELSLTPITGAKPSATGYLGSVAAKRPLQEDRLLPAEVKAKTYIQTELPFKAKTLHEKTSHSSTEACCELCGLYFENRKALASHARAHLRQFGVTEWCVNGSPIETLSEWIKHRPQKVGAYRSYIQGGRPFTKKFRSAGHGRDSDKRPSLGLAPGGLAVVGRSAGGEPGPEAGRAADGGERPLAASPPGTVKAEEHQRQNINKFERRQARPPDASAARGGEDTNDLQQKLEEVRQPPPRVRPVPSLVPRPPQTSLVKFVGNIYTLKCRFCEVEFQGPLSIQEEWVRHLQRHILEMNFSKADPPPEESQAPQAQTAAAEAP
T1 sequence (Q96SW2 whole entry): as the sequence (Q96SW2 whole entry) above
T1 sequence (Q16531 whole entry partner): as the sequence (Q16531 whole entry partner) above

Turning to `CN1C(=O)COc2cc([C@H]3CC[C@H](C#N)CC3)c(Nc3cccc4c3C(=O)N(C3CCC(=O)NC3=O)C4=O)cc21` (stereo partly drawn) [Compound 53, (1r,4r)-4-(6-((2-(2,6-dioxopiperidin-3-yl)-1,3-dioxoisoindolin-4-yl)amino)-4-methyl-3-oxo-3,4-dihydro-2H-benzo[b][1,4]oxazin-7-yl)cyclohexane-1-carbonitrile], the results for the DC50 in assay [1] and in assay [2] were 4 nM and 10 nM, respectively. In assay [3], the “HBF AUC” value is “++ (++ = 100 ≤ AUC < 150)”.

For the compound `C=CN1C(=O)CCc2cc(-c3ccnc(C)c3)c(Nc3cccc4c3C(=O)N(C3CCC(=O)NC3=O)C4=O)cc21` (stereo not drawn) [Compound 94, 2-(2,6-dioxopiperidin-3-yl)-4-((6-(2-methylpyridin-4-yl)-2-oxo-1-vinyl-1,2,3,4-tetrahydroquinolin-7-yl)amino)isoindoline-1,3-dione], the DC50 was determined as 17 nM in assay [1] and 28 nM in assay [2]. Besides, the “HBF AUC” value in assay [3] is recorded as “+ (+ = 15 ≤ AUC < 100)”.

With `Cc1cc(-c2cc3c(cc2Nc2cccc4c2C(=O)N(C2CCC(=O)NC2=O)C4=O)N(C)C(=O)CO3)cc(F)c1F` (stereo not drawn) [Compound 13, 4-((7-(3,4-difluoro-5-methylphenyl)-4-methyl-3-oxo-3,4-dihydro-2H-benzo[b][1,4]oxazin-6-yl)amino)-2-(2,6-dioxopiperidin-3-yl)isoindoline-1,3-dione], the DC50 in assay [1] was 50 nM; in assay [2], 38 nM. The “HBF AUC” value in assay [3] is “+ (+ = 15 ≤ AUC < 100)”.

For the compound `COc1ncc(-c2cc3c(cc2Nc2cccc4c2C(=O)N(C2CCC(=O)NC2=O)C4=O)N(C)C(=O)CO3)cc1F` (stereo not drawn) [Compound 51, 2-(2,6-dioxopiperidin-3-yl)-4-((7-(5-fluoro-6-methoxypyridin-3-yl)-4-methyl-3-oxo-3,4-dihydro-2H-benzo[b][1,4]oxazin-6-yl)amino)isoindoline-1,3-dione], the results for the DC50 in assay [1] and in assay [2] were 37 nM and 30 nM, respectively. Further, in assay [3], the “HBF AUC” value is given as “++ (++ = 100 ≤ AUC < 150)”.

As for `Cc1cc(-c2cc3c(cc2Nc2cccc4c2C(=O)N([C@H]2CCC(=O)NC2=O)C4=O)N(C)[C@H](C)CO3)ccn1` [Compound 3, 4-(((R)-3,4-dimethyl-7-(2-methylpyridin-4-yl)-3,4-dihydro-2H-benzo[b][1,4]oxazin-6-yl)amino)-2-((S)-2,6-dioxopiperidin-3-yl)isoindoline-1,3-dione], the DC50 was 17 nM in assay [1] and 29 nM in assay [2]. Moreover, in assay [3], the “HBF AUC” value is on record as “+++ (+++ = AUC ≥ 150)”.

`COc1ccc(-c2cc3c(cc2Nc2cccc4c2C(=O)N([C@H]2CCC(=O)NC2=O)C4=O)N(C)C(=O)[C@@H](C)O3)cn1` [Compound 39, 2-((S)-2,6-dioxopiperidin-3-yl)-4-(((R)-7-(6-methoxypyridin-3-yl)-2,4-dimethyl-3-oxo-3,4-dihydro-2H-benzo[b][1,4]oxazin-6-yl)amino)isoindoline-1,3-dione]: the DC50 in assay [1] was 13 nM; in assay [2] it was 16 nM. Further, the “HBF AUC” value in assay [3] was “+ (+ = 15 ≤ AUC < 100)”.

On to `Cc1cc(-c2cc3c(cc2Nc2cccc4c2C(=O)N(C2CCC(=O)NC2=O)C4=O)N(C)C(=O)CC3C)ccn1` (stereo not drawn) [Compound 96, 4-((1,4-dimethyl-6-(2-methylpyridin-4-yl)-2-oxo-1,2,3,4-tetrahydroquinolin-7-yl)amino)-2-(2,6-dioxopiperidin-3-yl)isoindoline-1,3-dione], for which the DC50 in assay [1] was found to be 11 nM; in assay [2], 13 nM. The “HBF AUC” value in assay [3] was “++ (++ = 100 ≤ AUC < 150)”.

Regarding `CC(=O)N1CCC(c2cc3c(cc2Nc2cccc4c2C(=O)N(C2CCC(=O)NC2=O)C4=O)N(C)C(=O)CC3)CC1` (stereo not drawn) [Compound 84, 4-((6-(1-acetylpiperidin-4-yl)-1-methyl-2-oxo-1,2,3,4-tetrahydroquinolin-7-yl)amino)-2-(2,6-dioxopiperidin-3-yl)isoindoline-1,3-dione], the DC50 in assay [1] came out at 7 nM; in assay [2], 19 nM. In assay [3], the “HBF AUC” value is recorded as “+++ (+++ = AUC ≥ 150)”.

In the case of `Cc1cc(-c2cc3c(cc2Nc2cccc4c2C(=O)N([C@H]2CCC(=O)NC2=O)C4=O)N(C)C(=O)[C@@H](C)O3)cc(C)n1` [Compound 24, 4-(((R)-7-(2,6-dimethylpyridin-4-yl)-2,4-dimethyl-3-oxo-3,4-dihydro-2H-benzo[b][1,4]oxazin-6-yl)amino)-2-((S)-2,6-dioxopiperidin-3-yl)isoindoline-1,3-dione], the results for the DC50 in assay [1] and in assay [2] were 14 nM and 26 nM, respectively. In assay [3], the “HBF AUC” value is reported as “+++ (+++ = AUC ≥ 150)”.

In the case of `CC[C@@H]1Oc2cc(-c3ccnc(C)c3)c(Nc3cccc4c3C(=O)N([C@H]3CCC(=O)NC3=O)C4=O)cc2N(C)C1=O` [Compound 20, 2-((S)-2,6-dioxopiperidin-3-yl)-4-(((S)-2-ethyl-4-methyl-7-(2-methylpyridin-4-yl)-3-oxo-3,4-dihydro-2H-benzo[b][1,4]oxazin-6-yl)amino)isoindoline-1,3-dione], the results for the DC50 in assay [1] and in assay [2] were 14 nM and 12 nM, respectively. Moreover, in assay [3], the “HBF AUC” value was “+ (+ = 15 ≤ AUC < 100)”.

For `Cc1cncc(-c2cc3c(cc2Nc2cccc4c2C(=O)N([C@H]2CCC(=O)NC2=O)C4=O)N(C)C(=O)[C@@H](C)O3)c1` [Compound 42, 4-(((R)-2,4-dimethyl-7-(5-methylpyridin-3-yl)-3-oxo-3,4-dihydro-2H-benzo[b][1,4]oxazin-6-yl)amino)-2-((S)-2,6-dioxopiperidin-3-yl)isoindoline-1,3-dione], the DC50 was found to be 9 nM in assay [1] and 18 nM in assay [2]. The “HBF AUC” value in assay [3] is “+ (+ = 15 ≤ AUC < 100)”.
